Molecules are shown by their SMILES. Active and inactive are the calls of the source. The rule behind the calls is not given here.

Broadly, the AC50 is the concentration at which the activity in the assay is half-maximal.

The subject of this experiment is B cell line, CD40 signaling inhibition reporter. In words: CD40 pathway inhibition in B cells – B cell lineage, dose response (AID 1259332).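 Note: cells stimulated with CD40 ligand tCD40L.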
Consider `C[C@@H]1CCCCO[C@@H](CN(C)Cc2ccc(Cl)c(Cl)c2)[C@H](C)CN([C@H](C)CO)C(=O)c2cc(NS(=O)(=O)c3cccs3)ccc2O1`, for which the AC50 is 7.26 µM.

In the case of `N#C[C@@H]1[C@H](c2ccc(C#CC3CCCCC3)cc2)[C@@H](CO)N1C(=O)Nc1ccc(F)cc1`, the AC50 was 10.4 µM.

Consider `O=C(c1nnsc1S(=O)(=O)c1ccc(Cl)cc1)N1CCOCC1`, for which the concentration at half-maximal activity (AC50) is 2.31 µM.

Take `Cc1noc(C)c1S(=O)(=O)Nc1ccc2c(c1)CC(=O)N([C@@H](C)CO)C[C@@H](C)[C@@H](CN(C)Cc1ccc(Oc3ccccc3)cc1)O2`: the AC50 is 7.39 µM.

On to `C[C@@H]1CN([C@@H](C)CO)C(=O)c2c(c3ccccc3n2C)-c2ccccc2CO[C@H]1CN(C)Cc1cccc(C(F)(F)F)c1`, for which the AC50 was 10.7 µM.

As to `CC(C)(C)OC(=O)CC(S(=O)(=O)c1ccccc1)S(=O)(=O)c1ccccc1`, the concentration at half-maximal activity (AC50) was 0.95 µM.

Regarding `COC(=O)c1nn(-c2ccc(-c3ccccc3)cc2)cc1O`, the AC50 was 8.42 µM.

As for `O=S(=O)(/C(=C\c1ccc(C(F)(F)F)cc1)c1nc2ccccc2[nH]1)c1ccccc1`, the half-maximal activity concentration (AC50) was 2.26 µM.

Turning to `C=C1C(=O)OC2CC1C(O)CC(C)=CCCC(C)=CC(O)CC2C` (centres undefined), the AC50 is 6 µM.

As to `Cc1ccnc(NC(=O)c2ccc(OCC3CCCO3)cc2)c1` (centres undefined), the AC50 was 5.23 µM.

With `C[C@H](CO)N1C[C@H](C)[C@H](CN(C)C(=O)C2CCOCC2)Oc2ncc(C#CCc3ccccc3)cc2C1=O`, the AC50 was 9.51 µM.

With `C[C@H](CO)N1C[C@H](C)[C@@H](CN(C)Cc2ccc(Oc3ccccc3)cc2)Oc2c(NC(=O)CCC(F)(F)F)cccc2C1=O`, the AC50 was 8.77 µM.

For `O=C1/C(=C/c2ccccc2)C[C@@]2(O)C3Cc4ccc(O)c5c4[C@@]2(CCN3CC2CC2)[C@H]1O5`, the half-maximal activity concentration (AC50) is 1.75 µM.

Take `COc1ccc2c3c(n(C)c2c1)[C@H](CO)N(C(=O)Nc1ccc(F)cc1)CC31CCN(C(=O)Nc2ccc(F)cc2F)CC1`: the AC50 is > 7 µM (inactive).

Turning to `CC(C)[C@H](CO)Nc1nc(Nc2cccc(Cl)c2)c2ncn(C(C)C)c2n1`, the AC50 was 4.67 µM.

Regarding `O=C1c2ccccc2C(=O)C1c1ccc2ccccc2n1`, the AC50 is 6.15 µM.

As for `O=C(NCCc1ccccc1)c1ccc2nccnc2c1`, the AC50 is 6.02 µM.

For `CS(=O)(=O)c1ccc(C(=O)OCC(=O)NC(=O)C2CCCCC2)cc1[N+](=O)[O-]`, the AC50 is > 20 µM (inactive).

Turning to `c1ccc2nc(-c3nc4ccccc4o3)ccc2c1`, the AC50 is 4.54 µM.

As for `CN1C(=O)c2cc(NC(=O)c3cccc(Cl)c3)ccc2OC[C@@H]2O[C@@H](CC(=O)NC3CCCCC3)CC[C@H]21`, the AC50 was > 20 µM (inactive).

Regarding `CC1(C)C(=O)C=C[C@@]2(C)C1C=C[C@]1(C)C2CC[C@@]2(C)[C@H](c3ccoc3)OC(=O)[C@H]3O[C@]321` (some centres undefined), the AC50 is 5.24 µM.

Consider `Cc1ccc(S(=O)(=O)CCC(=O)N(CCCN2CCOCC2)c2nc3ccccc3s2)cc1`, for which the AC50 is 8.01 µM.

In the case of `COc1ccc(C=Cc2ccc3ccccc3n2)c(OC)c1`, the AC50 was 11.3 µM.

As to `C[C@H](CO)N1C[C@H](C)[C@H](CN(C)C(=O)Nc2cccc(Cl)c2Cl)OCc2ccccc2-c2c(n(C)c3ccccc23)C1=O`, the AC50 was 5.24 µM.

As for `O=C1CC(=O)OC(c2ccc([N+](=O)[O-])cc2)O1`, the concentration at half-maximal activity (AC50) is 0.629 µM.

For the compound `Cc1ccc(N2CC(C(=O)Nc3nccs3)CC2=O)cc1Cl` (centres undefined), the AC50 was 8.73 µM.

`C=CC[n+]1c(/C=C2\C=Cc3cc(C)ccc3N2CC)ccc2ccccc21`: the AC50 is 2.7 µM.

Consider `CN(C)C(=S)SSC(=S)N(C)C`, for which the AC50 was 0.152 µM.

Regarding `CCCNC(=O)N1[C@H](C#N)[C@H](c2ccc(C#Cc3cccc(F)c3)cc2)[C@H]1CO`, the concentration at half-maximal activity (AC50) is 5.57 µM.

For the compound `CC1(C)C(=O)C=C[C@@]2(C)C1C[C@@H](O)[C@]1(C)C2CC[C@@]2(C)[C@H](c3ccoc3)OC(=O)[C@H]3O[C@]321` (some centres undefined), the AC50 was 7.18 µM.

`Cn1cnc(CCNC(=O)C[C@@H]2CC[C@@H]3[C@H](COC[C@@H](O)CN3C(=O)Nc3ccc(C(F)(F)F)cc3)O2)c1`: the concentration at half-maximal activity (AC50) is 8.76 µM.

Turning to `O=C(/C=C/c1ccccc1)CC(O)(c1ccccc1)C(F)(F)C(F)F` (centres undefined), the AC50 was 6.39 µM.

Take `c1ccc(-c2nc(-c3ccccn3)no2)cc1`: the half-maximal activity concentration (AC50) was 3.98 µM.

Turning to `CCCCNC(=O)C1(C)CCN1C(=O)c1cc(-c2cccs2)oc1C` (centres undefined), the concentration at half-maximal activity (AC50) was 3.11 µM.

Regarding `C[C@H]1CN([C@@H](C)CO)C(=O)Cc2cc(NS(=O)(=O)c3cccs3)ccc2O[C@@H]1CN(C)Cc1ccc(Cl)c(Cl)c1`, the AC50 was 5.83 µM.

Take `C[C@@H]1CN([C@@H](C)CO)C(=O)c2c(c3ccccc3n2C)-c2ccccc2CO[C@@H]1CN(C)Cc1cccc(C(F)(F)F)c1`: the AC50 is 7.08 µM.

Consider `C[C@@H]1CN([C@@H](C)CO)C(=O)c2c(c3ccccc3n2C)-c2ccccc2CO[C@H]1CN(C)Cc1ccccc1`, for which the half-maximal activity concentration (AC50) was 8.22 µM.

With `CC(OC(=O)c1cc(Br)ccc1O)C(=O)Nc1ccc(S(=O)(=O)N2CCCC2)cc1` (centres undefined), the AC50 is 11 µM.

In the case of `O=C1C=CC(=O)c2c(O)c(N3CCN(CCOCCO)CC3)c(Br)c(O)c21`, the AC50 is 1.91 µM.

On to `c1ccn2cc(-c3ccc4c(c3)OCCO4)nc2c1`, for which the half-maximal activity concentration (AC50) was 10.2 µM.

For `CC(=O)NC12CC3CC(C1)CC(C(=O)OCC(=O)c1ccc4c(c1)OCCO4)(C3)C2`, the concentration at half-maximal activity (AC50) is 6.31 µM.

As for `CC[N+]1(C)CCC(O)(c2ccc(OC)cc2)C(C(=O)c2ccc(OC)cc2)C1` (centres undefined), the AC50 is 3.75 µM.

Regarding `Cc1noc(C)c1S(=O)(=O)N(C)C[C@H]1OCc2ccccc2-c2c(n(C)c3ccccc23)C(=O)N([C@@H](C)CO)C[C@H]1C`, the AC50 is 11.2 µM.

Turning to `C[C@H]1CN([C@@H](C)CO)C(=O)c2c(c3ccccc3n2C)-c2ccccc2CO[C@@H]1CN(C)S(=O)(=O)c1ccc([N+](=O)[O-])cc1`, the AC50 is > 20 µM (inactive).

Consider `NC(=NCCCCCCN=C(N)/N=C(\N)Nc1ccc(Cl)cc1)/N=C(\N)Nc1ccc(Cl)cc1`, for which the AC50 is > 20 µM (inactive).

As to `CC(C)c1ccc(NC(=O)Nc2nc(C(N)COCc3ccccc3)cs2)cc1` (centres undefined), the half-maximal activity concentration (AC50) was 2.62 µM.

`CC(C)CCCCCCCCCCCCC(=O)NCC(=O)NC1C(O)C(O)C(Nc2ncnc3nc[nH]c23)OC1C(O)CO` (centres undefined): the AC50 is 0.0128 µM.

With `Cc1cccc(-c2nc3cc(NC(=O)C4CCCO4)ccc3o2)c1` (centres undefined), the AC50 was > 20 µM (inactive).

As for `CC(=O)OC1C(=O)OCC23CCC4(C)OC4C2OC2CC(OC(=O)C=CC=CC(=O)OCCC1C)C3(C)C21CO1` (centres undefined), the half-maximal activity concentration (AC50) is 0.0056 µM.

For the compound `CC(=O)OCC12CC(OC(=O)CC(C)C)C(C)=CC1OC1C(O)C(OC(C)=O)C2(C)C12CO2` (centres undefined), the AC50 is 2.74 µM.

As to `CC(=O)OCC(=O)C1(O)CCC2C3CCC4=CC(=O)CCC4(C)C3(Cl)C(O)CC21C` (centres undefined), the AC50 was > 20 µM (inactive).

Turning to `COc1ccc(S(=O)(=O)N(C)C[C@H]2Oc3ccc(NC(=O)Nc4ccc(C(F)(F)F)cc4)cc3C(=O)N([C@H](C)CO)C[C@H]2C)cc1`, the AC50 is 10.5 µM.

On to `C[C@@H]1CN([C@@H](C)CO)C(=O)c2c(c3ccccc3n2C)-c2ccccc2CO[C@H]1CN(C)C(=O)Nc1ccccc1C(F)(F)F`, for which the concentration at half-maximal activity (AC50) is 9.28 µM.

Regarding `COCC(=O)N1[C@H](C#N)[C@H](c2ccc(C#Cc3ccccc3F)cc2)[C@H]1CO`, the half-maximal activity concentration (AC50) is 0.856 µM.

For `O=C(C1CC1)N1C[C@@H]2N[C@H](C1)C2c1ccc(-c2cccc(F)c2)cc1` (some centres undefined), the AC50 was 6.91 µM.

Regarding `N#C[C@@H]1[C@H](c2ccc(C#Cc3ccccc3F)cc2)[C@@H](CO)N1C(=O)c1cccnc1`, the half-maximal activity concentration (AC50) is 4.37 µM.

Take `Cc1cccc(-c2ccc(C3[C@@H]4CN(C(=O)Nc5ccc(C(F)(F)F)cc5)C[C@H]3N4)cc2)c1` (some centres undefined): the AC50 was 7.37 µM.

With `COc1cc2c(cc1OC)C(=O)C(Br)CC2` (centres undefined), the half-maximal activity concentration (AC50) is 3.76 µM.

Consider `C[C@@H]1CN([C@H](C)CO)C(=O)c2ccccc2-c2ccccc2CO[C@@H]1CN(C)Cc1ccccc1C(F)(F)F`, for which the AC50 was 9.99 µM.

Turning to `CC(NCC(O)COCCC12CC3CC(CC(C3)C1)C2)c1ccccc1` (centres undefined), the half-maximal activity concentration (AC50) was 4.88 µM.

In the case of `C[C@@H]1CN([C@@H](C)CO)C(=O)c2c(c3ccccc3n2C)-c2ccccc2CO[C@@H]1CN(C)C(=O)Nc1ccccc1C(F)(F)F`, the AC50 is 9.94 µM.

Turning to `CCCn1c(NC(=O)c2cccc(S(=O)(=O)N3CCCC3)c2)nc2ccccc21`, the concentration at half-maximal activity (AC50) is 2.02 µM.

With `COc1cc(/C=N/n2cnnc2)ccc1OC(=O)c1ccncc1`, the half-maximal activity concentration (AC50) is 3.6 µM.

Regarding `N#C[C@@H]1[C@H](c2ccc(C#CC3CCCCC3)cc2)[C@@H](CO)N1S(=O)(=O)c1ccccc1`, the AC50 is 2.28 µM.

For `CC1OC(OC2C(O)CC(OC3C(O)CC(OC4CCC5(C)C(CCC6C5CCC5(C)C(C7=CC(=O)OC7)C(O)CC65O)C4)OC3C)OC2C)CC(O)C1O` (centres undefined), the AC50 was 0.943 µM.

Regarding `CC1CC(C)C(=O)C(C(O)CC2CC(=O)NC(=O)C2)C1` (centres undefined), the AC50 was 0.196 µM.

In the case of `N#C[C@H]1[C@H](c2ccc(C#Cc3ccc(F)cc3)cc2)[C@@H](CO)N1C(=O)C1CCC1`, the half-maximal activity concentration (AC50) is 7.7 µM.

For the compound `C[C@H]1CN([C@@H](C)CO)C(=O)c2c(c3ccccc3n2C)-c2ccccc2CO[C@H]1CN(C)C(=O)Nc1ccccc1C(F)(F)F`, the AC50 was > 20 µM (inactive).

As for `N#CC(C#N)=NNc1ccc(OC(F)(F)F)cc1`, the half-maximal activity concentration (AC50) is 3.97 µM.

For `Cn1cc(C2=C(c3cn(CCCSC(=N)N)c4ccccc34)C(=O)NC2=O)c2ccccc21`, the half-maximal activity concentration (AC50) is 0.67 µM.

Turning to `CC1CC(C)C(=O)C(C(CC2CC(=O)NC(=O)C2)OC(=O)CC(=O)c2ccccc2)C1` (centres undefined), the AC50 is 3.18 µM.

Turning to `COc1cccc(/C=N/Nc2ccc(C(=O)O)cc2)c1O`, the AC50 was 1.33 µM.

Regarding `CCCNC(=O)N1[C@@H](C#N)[C@H](c2ccc(-c3cccc(OC)c3)cc2)[C@@H]1CO`, the concentration at half-maximal activity (AC50) is 11 µM.

Consider `C[C@H](CO)N1C[C@H](C)[C@@H](CN(C)Cc2ccc(Cl)c(Cl)c2)OCCCC[C@H](C)Oc2ccc(NS(=O)(=O)c3cccs3)cc2C1=O`, for which the concentration at half-maximal activity (AC50) was 8.38 µM.

On to `Cc1cc(C(=O)COC(=O)c2ccco2)c(C)n1Cc1ccco1`, for which the AC50 is 0.11 µM.

As for `COc1ccc(/C=N/Nc2ncccc2[N+](=O)[O-])c(OC)c1`, the AC50 was 4.23 µM.

Take `O=C(c1ccc(F)cc1)N1C[C@@H]2N[C@H](C1)C2c1ccc(/C=C/c2ccccc2)cc1` (some centres undefined): the AC50 was 4.68 µM.

Consider `CC1OC(CC(=O)O)CC2=C1C(=O)c1c(O)cccc1C2=O` (centres undefined), for which the concentration at half-maximal activity (AC50) was 0.204 µM.

`COc1ccc(S(=O)(=O)Nc2ccc3c(c2)C(=O)N([C@H](C)CO)C[C@H](C)[C@@H](CN(C)Cc2ccc(C(F)(F)F)cc2)OCCCC[C@@H](C)O3)cc1`: the concentration at half-maximal activity (AC50) is 11.4 µM.

Source of the values: PubChem BioAssay AID1259332 (Broad Institute, 2017).
